Measurements reported in patent publication US20090252673A1, “Methods of Making and Using Rubidium-81-Containing Compositions” (priority 2006, published 2009).

Experiments:
[1] = tested on: occlusion/reperfusion rat heart model; assay: Ex vivo dual tracer autoradiography, Tl-201 and Rb-81 redistribution kinetics; assay type: in vivo, rats; conditions: for activity in occluded areas, percent of the uptake in normal tissues: 20 μm heart slices, phosphor-imager ROIs
Description: Three additional rats were simultaneously injected with 20 MBq Rb-81 and 2.7 MBq Tl-201. After the occlusion/injection/reperfusion procedure was completed (see FIG. 8), the animals were sacrificed at 0, 15 and 45 min after initiating the reperfusion.
After the hearts of the animals were removed and freshly frozen in liquid nitrogen, they were sliced into short axis 20 μm slices. Radioactivity in the tissues sections was determined by using a phosphor-imager. Rb-81 was measured over a period of 3 h directly after preparation of the slices, whereas the Tl-201 activity was determined after the Rb-81 activity was almost completed (Rb-81: t1/2=4.58 h versus a 4 day decay period).
Quantitative evaluations were carried out by comparison of the detected counts within regions-of-interest in both, normal tissue areas and occluded tissues areas. Comparisons are given in percent of normal heart tissue.

[2] = Biodistribution of Rb-81 in rats; assay type: in vivo, female Wistar rats; conditions: mean±SD, n=3
Description: 1.85-5.33 MBq (50-144 μCi) Rb-81 in 250 μl isotonic saline was injected into the lateral tail vein of 24 non-fasted female Wistar rats weighing 180-220 g (12 animals at each day).
All the animals were anesthesized with Isofluran (1.5 vol. % and 2.01/min 02) during the injection of the Rb-81 solution. 5 min, 10 min, 20 min, 30 min, 45 min, 1 h, 2 h and 4 h post injection of the Rb-81 solution, the animals were sacrificed by carbon dioxide inhalation (n=3 animals for all time points).
The organs of interest (heart, blood, lungs, liver, stomach, spleen, pancreas, small intestine, colon, kidney, adrenal gland, muscle, bone, brain and tail) were dissected, weighed and measured for activity using a well-type g-counter. Tracer accumulation was normalized to the organ weights. All data are expressed as percent of the injected dose per gram tissue (% ID/g, mean±SD).

[3] = tested on: rat heart (myocardium), normal and occlusion/reperfusion; assay: Imaging of rat hearts using a small animal PET scanner; assay type: in vivo, female Wistar rats
Description: For the PET measurements, a microPET FOCUS 120 small animal scanner (Siemens Medical Solutions USA, Inc.) was used. Imaging was done on 4 female Wistar rats (200-250 g) (see Tab. 1). […] After 5 min, the occlusion was removed and dynamic PET images of the animals were taken for 4 h and 2 h. Two rats were used as controls without occlusion (rest). The first rat was injected with 20.2 MBq Rb-81 and the second rat with 69.3 MBq Rb-81, in 500 μl isotonic saline. Following injection, dynamic PET images of the animals were taken for 4 h (S1#1 und S1#2) and 2 h (S2#3 and S2#4). The Rb-81 solution was injected intravenously in the lateral tail vein of all animals. For occlusion, a 7-0 polypropylene suture on a small curved needle was passed through the left coronary artery (LCA), and ligated to occlude the LCA. After tracer injection, reperfusion was obtained by cutting the suture. LCA occlusion and reperfusion were confirmed by the color change of myocardial surface. […]
After PET imaging, all animals were sacrificed by carbon dioxide inhalation and the organs of interest (see above) were dissected, weighed and measured for activity using a well-type g-counter. […] All data are expressed as percent of the injected dose per gram tissue (% ID/g, mean±SD). […]

[4] = 5 min after application into the tail vein
[5] = 10 min after application into the tail vein
[6] = 20 min after application into the tail vein
[7] = 30 min after application into the tail vein
[8] = 45 min after application into the tail vein
[9] = 60 min after application into the tail vein
[10] = 120 min after application into the tail vein
[11] = 240 min after application into the tail vein

[81Rb] [Rb-81, Rubidium-81]
activity in occluded areas, percent of the uptake in normal tissues ([1]; 0 min p.i.): 7%
activity in occluded areas, percent of the uptake in normal tissues ([1]; 15 min p.i.): 37%
activity in occluded areas, percent of the uptake in normal tissues ([1]; 45 min p.i.): 82%
redistribution kinetics ([1]; compared with Tl-201, occluded heart areas after reperfusion): considerably faster
biodistribution, Adrenals [2, 4]: 3.68 ± 0.89 % ID/g
biodistribution, Blood [2, 4]: 0.25 ± 0.07 % ID/g
biodistribution, Bone [2, 4]: 0.48 ± 0.10 % ID/g
biodistribution, Brain [2, 4]: 0.10 ± 0.02 % ID/g
biodistribution, Heart [2, 4]: 4.18 ± 0.18 % ID/g
biodistribution, Kidney [2, 4]: 9.21 ± 0.98 % ID/g
biodistribution, Large Intestine [2, 4]: 1.03 ± 0.82 % ID/g
biodistribution, Liver [2, 4]: 1.25 ± 0.05 % ID/g
biodistribution, Lung [2, 4]: 2.09 ± 0.43 % ID/g
biodistribution, Muscle [2, 4]: 0.18 ± 0.02 % ID/g
biodistribution, Pancreas [2, 4]: 1.81 ± 0.20 % ID/g
biodistribution, Small Intestine [2, 4]: 4.06 ± 0.91 % ID/g
biodistribution, Spleen [2, 4]: 1.45 ± 0.30 % ID/g
biodistribution, Stomach [2, 4]: 0.80 ± 0.41 % ID/g
biodistribution, Adrenals [2, 5]: 3.44 ± 1.07 % ID/g
biodistribution, Blood [2, 5]: 0.22 ± 0.04 % ID/g
biodistribution, Bone [2, 5]: 0.66 ± 0.09 % ID/g
biodistribution, Brain [2, 5]: 0.09 ± 0.03 % ID/g
biodistribution, Heart [2, 5]: 4.30 ± 0.68 % ID/g
biodistribution, Kidney [2, 5]: 6.96 ± 1.39 % ID/g
biodistribution, Large Intestine [2, 5]: 1.22 ± 0.05 % ID/g
biodistribution, Liver [2, 5]: 2.37 ± 0.20 % ID/g
biodistribution, Lung [2, 5]: 1.74 ± 0.18 % ID/g
biodistribution, Muscle [2, 5]: 0.31 ± 0.12 % ID/g
biodistribution, Pancreas [2, 5]: 2.70 ± 0.02 % ID/g
biodistribution, Small Intestine [2, 5]: 3.47 ± 0.33 % ID/g
biodistribution, Spleen [2, 5]: 1.88 ± 0.21 % ID/g
biodistribution, Stomach [2, 5]: 0.63 ± 0.26 % ID/g
biodistribution, Adrenals [2, 6]: 2.92 ± 0.45 % ID/g
biodistribution, Blood [2, 6]: 0.21 ± 0.04 % ID/g
biodistribution, Bone [2, 6]: 0.65 ± 0.15 % ID/g
biodistribution, Brain [2, 6]: 0.11 ± 0.02 % ID/g
biodistribution, Heart [2, 6]: 2.55 ± 0.47 % ID/g
biodistribution, Kidney [2, 6]: 2.90 ± 0.51 % ID/g
biodistribution, Large Intestine [2, 6]: 0.70 ± 0.07 % ID/g
biodistribution, Liver [2, 6]: 2.47 ± 0.64 % ID/g
biodistribution, Lung [2, 6]: 1.62 ± 0.46 % ID/g
biodistribution, Muscle [2, 6]: 0.31 ± 0.02 % ID/g
biodistribution, Pancreas [2, 6]: 2.29 ± 0.73 % ID/g
biodistribution, Small Intestine [2, 6]: 2.73 ± 0.64 % ID/g
biodistribution, Spleen [2, 6]: 1.97 ± 0.47 % ID/g
biodistribution, Stomach [2, 6]: 1.20 ± 0.46 % ID/g
biodistribution, Adrenals [2, 7]: 2.08 ± 0.60 % ID/g
biodistribution, Blood [2, 7]: 0.19 ± 0.03 % ID/g
biodistribution, Bone [2, 7]: 0.63 ± 0.03 % ID/g
biodistribution, Brain [2, 7]: 0.09 ± 0.01 % ID/g
biodistribution, Heart [2, 7]: 2.69 ± 0.32 % ID/g
biodistribution, Kidney [2, 7]: 2.91 ± 0.37 % ID/g
biodistribution, Large Intestine [2, 7]: 0.53 ± 0.14 % ID/g
biodistribution, Liver [2, 7]: 2.60 ± 0.43 % ID/g
biodistribution, Lung [2, 7]: 1.73 ± 0.31 % ID/g
biodistribution, Muscle [2, 7]: 0.36 ± 002 % ID/g
biodistribution, Pancreas [2, 7]: 2.12 ± 0.13 % ID/g
biodistribution, Small Intestine [2, 7]: 2.33 ± 0.72 % ID/g
biodistribution, Spleen [2, 7]: 1.26 ± 0.78 % ID/g
biodistribution, Stomach [2, 7]: 0.88 ± 0.24 % ID/g
biodistribution, Adrenals [2, 8]: 1.32 ± 0.88 % ID/g
biodistribution, Blood [2, 8]: 0.15 ± 0.08 % ID/g
biodistribution, Bone [2, 8]: 0.38 ± 0.18 % ID/g
biodistribution, Brain [2, 8]: 0.07 ± 0.03 % ID/g
biodistribution, Heart [2, 8]: 1.58 ± 0.79 % ID/g
biodistribution, Kidney [2, 8]: 1.56 ± 0.77 % ID/g
biodistribution, Large Intestine [2, 8]: 0.47 ± 0.22 % ID/g
biodistribution, Liver [2, 8]: 1.79 ± 1.07 % ID/g
biodistribution, Lung [2, 8]: 1.02 ± 0.45 % ID/g
biodistribution, Muscle [2, 8]: 0.21 ± 0.06 % ID/g
biodistribution, Pancreas [2, 8]: 1.76 ± 0.91 % ID/g
biodistribution, Small Intestine [2, 8]: 1.45 ± 0.82 % ID/g
biodistribution, Spleen [2, 8]: 1.27 ± 0.57 % ID/g
biodistribution, Stomach [2, 8]: 0.57 ± 0.24 % ID/g
biodistribution, Adrenals [2, 9]: 1.45 ± 0.43 % ID/g
biodistribution, Blood [2, 9]: 0.17 ± 0.01 % ID/g
biodistribution, Bone [2, 9]: 0.54 ± 0.16 % ID/g
biodistribution, Brain [2, 9]: 0.08 ± 0.02 % ID/g
biodistribution, Heart [2, 9]: 1.48 ± 0.41 % ID/g
biodistribution, Kidney [2, 9]: 1.45 ± 0.14 % ID/g
biodistribution, Large Intestine [2, 9]: 0.53 ± 0.20 % ID/g
biodistribution, Liver [2, 9]: 2.25 ± 0.77 % ID/g
biodistribution, Lung [2, 9]: 1.00 ± 0.44 % ID/g
biodistribution, Muscle [2, 9]: 0.35 ± 0.14 % ID/g
biodistribution, Pancreas [2, 9]: 1.99 ± 0.73 % ID/g
biodistribution, Small Intestine [2, 9]: 1.25 ± 0.34 % ID/g
biodistribution, Spleen [2, 9]: 1.43 ± 0.41 % ID/g
biodistribution, Stomach [2, 9]: 0.64 ± 0.31 % ID/g
biodistribution, Adrenals [2, 10]: 0.56 ± 0.22 % ID/g
biodistribution, Blood [2, 10]: 0.10 ± 0.05 % ID/g
biodistribution, Bone [2, 10]: 0.33 ± 0.12 % ID/g
biodistribution, Brain [2, 10]: 0.06 ± 0.03 % ID/g
biodistribution, Heart [2, 10]: 0.67 ± 0.21 % ID/g
biodistribution, Kidney [2, 10]: 0.76 ± 0.27 % ID/g
biodistribution, Large Intestine [2, 10]: 0.36 ± 0.24 % ID/g
biodistribution, Liver [2, 10]: 1.32 ± 0.73 % ID/g
biodistribution, Lung [2, 10]: 0.60 ± 0.23 % ID/g
biodistribution, Muscle [2, 10]: 0.24 ± 0.13 % ID/g
biodistribution, Pancreas [2, 10]: 1.31 ± 0.66 % ID/g
biodistribution, Small Intestine [2, 10]: 0.83 ± 0.37 % ID/g
biodistribution, Spleen [2, 10]: 0.88 ± 0.42 % ID/g
biodistribution, Stomach [2, 10]: 0.34 ± 0.15 % ID/g
biodistribution, Adrenals [2, 11]: 0.75 ± 0.07 % ID/g
biodistribution, Blood [2, 11]: 0.20 ± 0.01 % ID/g
biodistribution, Bone [2, 11]: 0.61 ± 0.04 % ID/g
biodistribution, Brain [2, 11]: 0.13 ± 0.01 % ID/g
biodistribution, Heart [2, 11]: 0.81 ± 0.02 % ID/g
biodistribution, Kidney [2, 11]: 0.90 ± 0.04 % ID/g
biodistribution, Large Intestine [2, 11]: 0.59 ± 0.05 % ID/g
biodistribution, Liver [2, 11]: 1.90 ± 0.03 % ID/g
biodistribution, Lung [2, 11]: 0.79 ± 0.05 % ID/g
biodistribution, Muscle [2, 11]: 0.61 ± 0.11 % ID/g
biodistribution, Pancreas [2, 11]: 1.65 ± 0.20 % ID/g
biodistribution, Small Intestine [2, 11]: 0.89 ± 0.02 % ID/g
biodistribution, Spleen [2, 11]: 1.34 ± 0.06 % ID/g
biodistribution, Stomach [2, 11]: 0.44 ± 0.15 % ID/g
uptake in the myocardium ([3]; PET summation images, rat): highest shortly after administration
period after re-opening of the occlusion over which filling in of the defect takes place (redistribution) ([3]; PET, rat with temporary coronary artery occlusion): 40 to 50 min

[201Tl] [Tl-201, reference compound]
activity in occluded areas, percent of the uptake in normal tissues ([1]; 0 min p.i.): 5%
activity in occluded areas, percent of the uptake in normal tissues ([1]; 15 min p.i.): 28%
activity in occluded areas, percent of the uptake in normal tissues ([1]; 45 min p.i.): 58%
